Measurements published in patent EP4007494B1, “METHOD OF IMPROVING COLD STRESS TOLERANCE AND CROP SAFETY” (Bayer CropScience LLC, priority 2019, dated 2021).
Where two headings read alike, the source gives them in different places.

Test system: canola
Details: for Average Relative Yield: relative to PROSPER EVERGOL

## O=C1C=C(N(Cc2ccc(Cl)nc2)CC(F)F)CO1 [Flupyradifurone, flupyradifurone]
Flupyradifurone 5 g per kg seed, alone or + QST713 1 × 10^6 CFU per seed
  Average Relative Yield: 102.0%
Flupyradifurone 10 g per kg seed
  Average Relative Yield: 100.5%
In vivo
  Average Relative Stand Density: 83.2%
  Average Vigor Rating: 4.2
  Relative Delay in Emergence: 3.5 days
  average relative stand density: decreased
  delay in emergence: significant delay in emergence
